Assay results: the NIST ThermoML archive (doi:10.1016/j.jct.2008.12.011)
± gives the expanded uncertainty stated by the source.

Legend:
[1] = mn = molality of the nth substance listed, in mol/kg; details: 101 kPa, Liquid, Vibrating tube method
[2] = cn = amount concentration of the nth substance listed, in mol/dm3; details: 101.3 kPa, Liquid, Vibrating tube method

O=S(=O)(O)CC(O)CNC(CO)(CO)CO (configuration not stated) + O
mass density [kg/m3], [1]
Details	298.15 K	303.15 K	310.15 K	318.15 K	323.15 K	328.15 K
m1 = 0.0629	1003.59 ± 1	1002.16 ± 1	999.78 ± 1	996.62 ± 1	994.41 ± 1	992.05 ± 1
m1 = 0.123	1009.62 ± 1	1008.14 ± 1	1005.72 ± 1	1002.52 ± 1	1000.3 ± 1	997.92 ± 1
m1 = 0.1921	1016.37 ± 1	1014.86 ± 1	1012.39 ± 1	1009.15 ± 1	1006.89 ± 1	1004.5 ± 1
m1 = 0.4659	1041.93 ± 1	1040.26 ± 1	1037.6 ± 1	1034.18 ± 1	1031.71 ± 1	1028.8 ± 1
m1 = 0.7644	1069.04 ± 1	1066.83 ± 1	1063.04 ± 1	1059.95 ± 1	1056.86 ± 1	1054.93 ± 1

O=S(=O)(O)CCCNC(CO)(CO)CO [3-[tris(hydroxymethyl)methylamino]-1-propanesulfonic acid] + O
mass density [kg/m3], [1]
Details	m1 = 0.5011	m1 = 0.8957	m1 = 1.224	m1 = 1.793	m1 = 2.213	m1 = 2.423	m1 = 2.803
298.15 K	1046.07 ± 1	1064.95 ± 1	1084.21 ± 1	1117.87 ± 1	1140.59 ± 1	1152.07 ± 1	1170.75 ± 1
303.15 K	1044.13 ± 1	1062.96 ± 1	1082.18 ± 1	1115.68 ± 1	1138.38 ± 1	1149.81 ± 1	1168.43 ± 1
310.15 K	1041.22 ± 1	1059.95 ± 1	1079.15 ± 1	1112.62 ± 1	1135.28 ± 1	1146.62 ± 1	1165.22 ± 1
318.15 K	1037.23 ± 1	1055.92 ± 1	1075.09 ± 1	1108.55 ± 1	1131.19 ± 1	1142.49 ± 1	1161.04 ± 1
323.15 K	1034.92 ± 1	1053.59 ± 1	1072.68 ± 1	1106.08 ± 1	1128.7 ± 1	1139.98 ± 1	1158.52 ± 1
328.15 K	1032.67 ± 1	1051.25 ± 1	1070.31 ± 1	1103.67 ± 1	1126.12 ± 1	1137.32 ± 1	1155.87 ± 1

[Br-].[K+] [potassium bromide] + O
mass density [kg/m3], [2]
Details	c1 = 1	c1 = 1.5	c1 = 2	c1 = 2.5	c1 = 3	c1 = 3.5	c1 = 4
298.15 K	–	1119.52 ± 1	–	1199.54 ± 1	1239.34 ± 1	1279.04 ± 1	–
303.15 K	1078.68 ± 1	1117.57 ± 1	1160.04 ± 1	1197.23 ± 1	1236.89 ± 1	1276.29 ± 1	1320.56 ± 1
308.15 K	1075.81 ± 1	1114.62 ± 1	1156.73 ± 1	1193.88 ± 1	1233.52 ± 1	1272.28 ± 1	1316.47 ± 1
313.15 K	1072.09 ± 1	1110.71 ± 1	1152.65 ± 1	1189.67 ± 1	1229.2 ± 1	1267.53 ± 1	1311.63 ± 1
318.15 K	1066.6 ± 1	1106.96 ± 1	1149.76 ± 1	1186.74 ± 1	1226.19 ± 1	1264.46 ± 1	1308.52 ± 1
323.15 K	1063.02 ± 1	1102.44 ± 1	1144.45 ± 1	1182.53 ± 1	1222.18 ± 1	1260.51 ± 1	1305.31 ± 1

[Cl-].[K+] [potassium chloride] + O
mass density [kg/m3], [2]
Details	c1 = 1	c1 = 1.5	c1 = 2	c1 = 2.5	c1 = 3	c1 = 3.5	c1 = 4
298.15 K	–	1059.97 ± 1	–	1104.2 ± 1	1124.93 ± 1	1145.56 ± 1	–
303.15 K	1041.13 ± 1	1058.12 ± 1	1080.38 ± 1	1102.19 ± 1	1122.78 ± 1	1143.35 ± 1	1166.67 ± 1
308.15 K	1038.43 ± 1	1055.31 ± 1	1077.43 ± 1	1099.06 ± 1	1119.56 ± 1	1140.06 ± 1	1163.34 ± 1
313.15 K	1035.01 ± 1	1051.75 ± 1	1073.77 ± 1	1095.37 ± 1	1115.79 ± 1	1136.18 ± 1	1159.35 ± 1
318.15 K	1032.69 ± 1	1049.38 ± 1	1071.35 ± 1	1092.9 ± 1	1113.28 ± 1	1133.63 ± 1	1156.76 ± 1
323.15 K	1030.24 ± 1	1047.03 ± 1	1068.81 ± 1	1090.34 ± 1	1110.71 ± 1	1131.02 ± 1	1154.1 ± 1

CC(=O)[O-].[K+] [potassium ethanoate] + O
mass density [kg/m3], [2]
Details	c1 = 1	c1 = 1.5	c1 = 2	c1 = 2.5	c1 = 3	c1 = 3.5	c1 = 4
298.15 K	–	1066.61 ± 1	–	1108.88 ± 1	1127.48 ± 1	1148.72 ± 1	–
303.15 K	1041.9 ± 1	1064.76 ± 1	1086.01 ± 1	1106.89 ± 1	1125.37 ± 1	1146.49 ± 1	1168.58 ± 1
308.15 K	1039.27 ± 1	1062.94 ± 1	1083.09 ± 1	1103.93 ± 1	1122.15 ± 1	1143.14 ± 1	1165.13 ± 1
313.15 K	1035.88 ± 1	1059.39 ± 1	1079.44 ± 1	1100.19 ± 1	1118.3 ± 1	1139.19 ± 1	1160.96 ± 1
318.15 K	1033.57 ± 1	1057.02 ± 1	1077.01 ± 1	1097.66 ± 1	1115.71 ± 1	1136.58 ± 1	1158.26 ± 1
323.15 K	1030.82 ± 1	1054.37 ± 1	1074.47 ± 1	1095.05 ± 1	1113.05 ± 1	1133.87 ± 1	1155.47 ± 1

[Cl-].[Na+] [sodium chloride] + O
mass density [kg/m3], [2]
Details	c1 = 1	c1 = 1.5	c1 = 2	c1 = 2.5	c1 = 3	c1 = 3.5	c1 = 4
298.15 K	–	1053.3 ± 1	–	1088.97 ± 1	1110.22 ± 1	1124.82 ± 1	–
303.15 K	1035.38 ± 1	1055.01 ± 1	1073.49 ± 1	1086.83 ± 1	1107.87 ± 1	1122.4 ± 1	1146.3 ± 1
308.15 K	–	1053.06 ± 1	1070.4 ± 1	1083.71 ± 1	1104.62 ± 1	1118.95 ± 1	1142.7 ± 1
313.15 K	1029.13 ± 1	1050.21 ± 1	1066.6 ± 1	1079.83 ± 1	1100.67 ± 1	1114.84 ± 1	1138.45 ± 1
318.15 K	1026.75 ± 1	1046.65 ± 1	1064.11 ± 1	1077.28 ± 1	1098.06 ± 1	1112.16 ± 1	1135.7 ± 1
323.15 K	1023.15 ± 1	1044.21 ± 1	1061.5 ± 1	1074.62 ± 1	1095.35 ± 1	1109.38 ± 1	1132.89 ± 1
